Test results from patent US20150299125A1, “PRODRUG BIPYRIDYLAMINOPYRIDINES AS SYK INHIBITORS” (MERCK SHARP & DOHME CORP., priority 2012, published 2015).

Molecular target: T1, recombinant human GST-Syk (Homo sapiens, UniProt P43405)
T1 construct: purchased Carna Biosciences 08-176
Test: Homogeneous Time-Resolved Fluorescence (HTRF) assay for the recombinant human Syk enzyme
Type: biochemical
Conditions: recombinant human GST-Syk 5 pM, ATP 25 μM, read-out: IC50
Protocol: Syk inhibition of the compounds of Formula (I) may be determined using the following assay protocol: Homogeneous Time-Resolved Fluorescence (HTRF) Assay for the Recombinant Human Syk Enzyme: A recombinant GST-hSyk fusion protein was used to measure potency of compounds to inhibit human Syk activity. […] Final volume of the reaction was 10 μL. Phosphorylation of the peptide was allowed to proceed for 45' at room temperature. To quench the reaction and detect the phosphorylated product, 2 nM of a Europium-anti-phosphotyrosine antibody (Perkin Elmer #AD0161) and 70 nM SA-APC (Perkin-Elmer #CR130-100) were added together in 15 mM Tris pH 7.5, 40 mM EDTA, 0.01% tween 20. Final volume of the quenching solution was 10 μL. The resulting HTRF signal was measured after 30 minutes on a EnVision (Perkin-Elmer) reader using a time-resolved fluorescence protocol.

IC50 [nM]	SMILES
19.1	Cc1cc(Nc2cc(C(F)F)ccn2)nc(-c2ccc([C@](C)(O)[C@H]3CC[C@H](C(=O)OC(C)OC(=O)c4cnn(C)c4)CC3)nc2)c1 (single isomer, unassigned) [Example 3-2a]
22.4	Cc1cc(Nc2cc(C(F)F)ccn2)nc(-c2ccc([C@](C)(O)[C@H]3CC[C@H](C(=O)OC(C)OC(=O)c4cnn(C)c4)CC3)nc2)c1 (single isomer, unassigned) [Example 3-2b]
12.9	COCCN(C)C(=O)OC(C)OC(=O)[C@H]1CC[C@H]([C@@](C)(O)c2ccc(-c3cc(C)cc(Nc4cc(C(F)F)ccn4)n3)cn2)CC1 (single isomer, unassigned) [Example 4-1b]
0.6	Cc1cc(Nc2cc(C(F)F)ccn2)nc(-c2ccc([C@](C)(O)[C@H]3CC[C@H](C(=O)OCOC(=O)OCC[S+](C)[O-])CC3)nc2)c1 (single isomer, unassigned) [Example 7-5]
8.1	Cc1cc(Nc2cc(C(F)F)ccn2)nc(-c2ccc([C@](C)(O)[C@H]3CC[C@H](C(=O)OCC(C)(C)O)CC3)nc2)c1 [Example 1-1, 2-Hydroxy-2-methylpropyl trans-4-[(1R)-1-(6-{[4-(difluoromethyl)pyridin-2-yl]amino}-4-methyl-2,3′-bipyridin-6′-yl)-1-hydroxyethyl]cyclohexanecarboxylate]
2.5	Cc1cc(Nc2cc(C(F)F)ccn2)nc(-c2ccc([C@](C)(O)[C@H]3CC[C@H](C(=O)OC[C@@H](O)CO)CC3)nc2)c1 [Example 1-3, (2S)-2,3-Dihydroxypropyl trans-4-[(1R)-1-(6-{[4-(difluoromethyl)pyridin-2-yl]amino}-4-methyl-2,3′-bipyridin-6′-yl)-1-hydroxyethyl]cyclohexanecarboxylate]
0.8	Cc1cc(Nc2cc(C(F)F)ccn2)nc(-c2ccc([C@](C)(O)[C@H]3CC[C@H](C(=O)OC[C@H]4OC(O)[C@H](O)[C@@H](O)[C@@H]4O)CC3)nc2)c1 (stereo partly drawn) [Example 1-4, 6-O-({trans-4-[(1R)-1-(6-{[4-(difluoromethyl)pyridin-2-yl]amino}-4-methyl-2,3′-bipyridin-6′-yl)-1-hydroxyethyl]cyclohexyl}carbonyl)-D-glucopyranose]
9.7	Cc1cc(Nc2cc(C(F)F)ccn2)nc(-c2ccc([C@](C)(O)[C@H]3CC[C@H](C(=O)Oc4ccccc4)CC3)nc2)c1 [Example 1-6, Phenyl trans-4-[(1R)-1-(6-{[4-(difluoromethyl)pyridin-2-yl]amino}-4-methyl-2,3′-bipyridin-6′-yl)-1-hydroxyethyl]cyclohexanecarboxylate]
18.2	CSCCOC(=O)[C@H]1CC[C@H]([C@@](C)(O)c2ccc(-c3cc(C)cc(Nc4cc(C(F)F)ccn4)n3)cn2)CC1 [Example 1-7, 2-(methylsulfanyl)ethyl trans-4-[(1R)-1-(6-{[4-(difluoromethyl)pyridin-2-yl]amino}-4-methyl-2,3′-bipyridin-6′-yl)-1-hydroxyethyl] cyclohexanecarboxylate]
1.7	Cc1cc(Nc2cc(C(F)F)ccn2)nc(-c2ccc([C@](C)(O)[C@H]3CC[C@H](C(=O)OCC[N+](C)(C)C)CC3)nc2)c1 [Example 1-10, 2-[({trans-4-[(1R)-1-(6-{[4-(difluoromethyl)pyridin-2-yl]amino}-4-methyl-2,3′-bipyridin-6′-yl)-1-hydroxyethyl]cyclohexyl}carbonyl)oxy]-N,N,N-trimethylethanaminium]
7.2	COc1ccc(OC(=O)[C@H]2CC[C@H]([C@@](C)(O)c3ccc(-c4cc(C)cc(Nc5cc(C(F)F)ccn5)n4)cn3)CC2)cc1 [Example 1-28, 4-methoxyphenyl trans-4-[(1R)-1-(6-{[4-(difluoromethyl)pyridin-2-yl]amino}-4-methyl-2,3′-bipyridin-6′-yl)-1-hydroxyethyl] cyclohexanecarboxylate]
6.2	Cc1cc(Nc2cc(C(F)F)ccn2)nc(-c2ccc([C@](C)(O)[C@H]3CC[C@H](C(=O)OCOC(=O)OCCOCc4ccccc4)CC3)nc2)c1 [Example 2-3, ({[2-(benzyloxy)ethoxy]carbonyl}oxy) methyl trans-4-[(1R)-1-(6-{[4-(difluoromethyl)pyridin-2-yl]amino}-4-methyl-2,3′-bipyridin-6′-yl)-1-hydroxyethyl]cyclo hexanecarboxylate]
7.5	CCOCCOCCOCCOC(=O)OCOC(=O)[C@H]1CC[C@H]([C@@](C)(O)c2ccc(-c3cc(C)cc(Nc4cc(C(F)F)ccn4)n3)cn2)CC1 [Example 2-5, 3-oxo-2,4,7,10,13-pentaoxapentadec-1-yl trans-4-[(1R)-1-(6-{[4-(difluoromethyl)pyridin-2-yl]amino}-4-methyl-2,3′-bipyridin-6′-yl)-1-hydroxyethyl]cyclo hexanecarboxylate]
22.8	CCOCC(COCC)OC(=O)OCOC(=O)[C@H]1CC[C@H]([C@@](C)(O)c2ccc(-c3cc(C)cc(Nc4cc(C(F)F)ccn4)n3)cn2)CC1 [Example 2-8, ({[2-ethoxy-1-(ethoxymethyl)ethoxy]carbonyl}oxy) methyl trans-4-[(1R)-1-(6-{[4-(difluoromethyl)pyridin-2-yl]amino}-4-methyl-2,3′-bipyridin-6′-yl)-1-hydroxyethyl]cyclo hexanecarboxylate]
< 0.5	CSCCOC(=O)OCOC(=O)[C@H]1CC[C@H]([C@@](C)(O)c2ccc(-c3cc(C)cc(Nc4cc(C(F)F)ccn4)n3)cn2)CC1 [Example 2-10, ({[2-(methylsulfanyl)ethoxy]carbonyl}oxy) methyl trans-4-[(1R)-1-(6-{[4-(difluoromethyl)pyridin-2-yl]amino}-4-methyl-2,3′-bipyridin-6′-yl)-1-hydroxyethyl]cyclo hexanecarboxylate]
1.5	Cc1cc(Nc2cc(C(F)F)ccn2)nc(-c2ccc([C@](C)(O)[C@H]3CC[C@H](C(=O)OCOC(=O)OCCC(=O)N(C)C)CC3)nc2)c1 [Example 2-12, ({[3-(dimethylamino)-3-oxopropoxy]carbonyl}oxy)methyl trans-4-[(1R)-1-(6-{[4-(difluoromethyl)pyridin-2-yl]amino}-4-methyl-2,3′-bipyridin-6′-yl)-1-hydroxyethyl]cyclo hexanecarboxylate]
34.6	Cc1cc(Nc2cc(C(F)F)ccn2)nc(-c2ccc([C@](C)(O)[C@H]3CC[C@H](C(=O)OCOC(=O)OCc4nccn4C)CC3)nc2)c1 [Example 2-13, ({[(1-methyl-1H-imidazol-2-yl)methoxy]carbonyl}oxy)methyl trans-4-[(1R)-1-(6-{[4-(difluoromethyl)pyridin-2-yl]amino}-4-methyl-2,3′-bipyridin-6′-yl)-1-hydroxyethyl]cyclo hexanecarboxylate]
32.9	CCOCCOCCOC(=O)OC(C)OC(=O)[C@H]1CC[C@H]([C@@](C)(O)c2ccc(-c3cc(C)cc(Nc4cc(C(F)F)ccn4)n3)cn2)CC1 (stereo partly drawn) [Example 2-15, 1-methyl-3-oxo-2,4,7,10-tetraoxadodec-1-yl trans-4-[(1R)-1-(6-{[4-(difluoromethyl)pyridin-2-yl]amino}-4-methyl-2,3′-bipyridin-6′-yl)-1-hydroxyethyl]cyclo hexanecarboxylate]
1.9	Cc1cc(Nc2cc(C(F)F)ccn2)nc(-c2ccc([C@](C)(O)[C@H]3CC[C@H](C(=O)OC(C)OC(=O)c4cnn(C)c4)CC3)nc2)c1 (stereo partly drawn) [Example 3-2, 1-[({Trans-4-[(1R)-1-(6-{[4-(difluoromethyl)pyridin-2-yl]amino}-4-methyl-2,3′-bipyridin-6′-yl)-1-hydroxyethyl]cyclohexyl}carbonyl)oxy]ethyl 1-methyl-1H-pyrazole-4-carboxylate]
2.3	Cc1cc(Nc2cc(C(F)F)ccn2)nc(-c2ccc([C@](C)(O)[C@H]3CC[C@H](C(=O)OCOC(=O)C(C)(C)O)CC3)nc2)c1 [Example 3-3, [(2-Hydroxy-2-methylpropanoyl)oxy]methyl trans-4-[(1R)-1-(6-{[4-(difluoromethyl)pyridin-2-yl]amino}-4-methyl-2,3′-bipyridin-6′-yl)-1-hydroxyethyl]cyclohexanecarboxylate]
< 0.5	Cc1cc(Nc2cc(C(F)F)ccn2)nc(-c2ccc([C@](C)(O)[C@H]3CC[C@H](C(=O)OCOC(=O)CO)CC3)nc2)c1 [Example 3-5, [(hydroxyacetyl)oxy] methyl trans-4-[(1R)-1-(6-{[4-(difluoromethyl)pyridin-2-yl]amino}-4-methyl-2,3′-bipyridin-6′-yl)-1-hydroxyethyl]cyclohexane carboxylate]
12.7	CC(=O)N[C@@H](CC(C)C)C(=O)OCOC(=O)[C@H]1CC[C@H]([C@@](C)(O)c2ccc(-c3cc(C)cc(Nc4cc(C(F)F)ccn4)n3)cn2)CC1 [Example 3-7, [({trans-4-[(1R)-1-(6-{[4-(difluoromethyl)pyridin-2-yl]amino}-4-methyl-2,3′-bipyridin-6′-yl)-1-hydroxyethyl]cyclohexyl}carbonyl)oxy]methyl N-acetyl-L-leucinate]
8.3	Cc1cc(Nc2cc(C(F)F)ccn2)nc(-c2ccc([C@](C)(O)[C@H]3CC[C@H](C(=O)OCOC(=O)c4cnn(C)c4)CC3)nc2)c1 [Example 3-8, [({trans-4-[(1R)-1-(6-{[4-(difluoromethyl)pyridin-2-yl]amino}-4-methyl-2,3′-bipyridin-6′-yl)-1-hydroxyethyl]cyclohexyl}carbonyl)oxy]methyl 1-methyl-1H-pyrazole-4-carboxylate]
2.4	COCCOCCNC(=O)OCOC(=O)[C@H]1CC[C@H]([C@@](C)(O)c2ccc(-c3cc(C)cc(Nc4cc(C(F)F)ccn4)n3)cn2)CC1 [Example 4-3, 3-oxo-2,7,10-trioxa-4-azaundec-1-yl trans-4-[(1R)-1-(6-{[4-(difluoromethyl)pyridin-2-yl]amino}-4-methyl-2,3′-bipyridin-6′-yl)-1-hydroxyethyl]cyclohexanecarboxylate]
